Measured values as given in patent publication US8420675B2, “Aminotetrahydroindazoloacetic acids” (Hoffmann-La Roche Inc., priority 2008, dated 2013).

Target: T1, human CRTH2 (Homo sapiens, UniProt Q9Y5Y4)
T1 construct: expressed in transfected cells
T1 sequence (Q9Y5Y4 1-395): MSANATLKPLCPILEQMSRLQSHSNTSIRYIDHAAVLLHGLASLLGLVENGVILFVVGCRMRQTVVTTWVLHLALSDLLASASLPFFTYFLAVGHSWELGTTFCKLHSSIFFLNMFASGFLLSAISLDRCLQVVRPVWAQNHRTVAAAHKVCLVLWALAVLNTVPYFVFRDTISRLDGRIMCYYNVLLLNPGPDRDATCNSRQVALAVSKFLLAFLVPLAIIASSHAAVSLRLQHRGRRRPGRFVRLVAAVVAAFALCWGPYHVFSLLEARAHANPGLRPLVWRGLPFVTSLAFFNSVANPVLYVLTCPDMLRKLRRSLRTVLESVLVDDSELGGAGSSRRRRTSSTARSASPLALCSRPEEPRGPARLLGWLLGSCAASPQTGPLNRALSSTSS
Test: Human CRTH2 Receptor Binding Assay (whole cell, [3H]ramatroban competition)
Conditions: CHO-K1 cells expressing human CRTH2 and G-alpha16; 20 nM [3H]ramatroban; 1 hour, room temperature
Source text: A whole cell receptor binding assay using [^3H]ramatroban as the competing radioactive ligand was employed to evaluate the compound binding activity to human CRTH2. The radioactive ligand [^3H]ramatroban was synthesized according to Sugimoto et. al. (Eur. J. Pharmacol. 524, 30-37, 2005) to a specific activity of 42 Ci/mmol.
A cell line stably expressing human CRTH2 was established by transfecting CHO-K1 cells with two mammalian expression vectors that harbored human CRTH2 and G-alpha16 cDNAs, respectively, using FuGene® 6 transfection reagent (from Roche). Stable clones expressing CRTH2 were selected by staining each clone with BM16 (BD Pharmingen™ from BD Biosciences, a division of Becton, Dickinson and Company), which is a rat monoclonal antibody to human CRTH2. The cells were maintained as monolayer cultures in Ham's F-12 medium containing 10% fetal bovine serum, 100 units/mL penicillin, 100 μg/mL streptomycin, 2 mM glutamine, 0.5 mg/mL G418 (geneticin) for CRTH2, and 0.2 mg/mL hygromycin-B (for G-alpha 16). For whole cell receptor binding assay, the monolayer cells were rinsed once with PBS (phosphate buffered saline), dissociated using ethylenediaminetetraacetate (Versene™ EDTA Lonza Inc.), and suspended in PBS containing 10 mM MgCl2 and 0.06% BSA (bovine serum albumin) at 1.5×10^6 cells/mL.
The binding reactions (0.2 mL) were performed in 96-well plates at room temperature in PBS containing 1.5×10^5 cells, 10 mM MgCl2, 0.06% BSA, 20 nM [^3H]ramatroban, and test compound at various concentrations. After 1 hour of binding reactions, the cells were harvested on GF™/B filter microplates (microtiter plates with embedded glass fiber from PerkinElmer, Inc.) and washed 5 times with PBS using a Filtermate™ Harvester (a cell harvester that harvests and washes cells from microplates from PerkinElmer, Inc.). The radioactivities bound to the cells were determined using a microplate scintillation counter (TopCount® NXT, from PerkinElmer, Inc.) after adding 50 μL of Microscint™ 20 scintillation fluid (from PerkinElmer, Inc.) to each well of the filter plates. The radioactivity from non-specific binding was determined by replacing compound with 10 μM of 15(R)-15-methyl PGD2 (from Cayman Chemical Company) in the reaction mixtures. The radioactivity bound to the cells in the absence of compound (total binding) was determined by replacing compound with 0.25% of DMSO (dimethyl sulfoxide) in the reaction mixture. Specific binding data were obtained by subtracting the radioactivity of non-specific binding from each binding data.
The IC50 value is defined as the concentration of the tested compound that is required for 50% inhibition of total specific binding. In order to calculate the IC50 value, the percent inhibition data were determined for 7 concentrations for each compound. The percent inhibition for a compound at each concentration was calculated according to the following formula, [1-(specific binding in the presence of compound)/(total specific binding)]x100. The IC50 value was then obtained by fitting the percent inhibition data to a sigmoidal dose-response (4 parameter logistic) model in the XLfit® software Excel add-in program [from ID Business Solutions Ltd., model 205, where F(x)=(A+(B−A)/(1+((C/x)^D)))].

SMILES | IC50 [nM]
COc1cccc(-c2ccc(S(=O)(=O)NC3CCCc4c3cnn4CC(=O)O)cc2)c1 (stereo not drawn) [Example 10-10a, [4-(3′-Methoxy-biphenyl-4-sulfonylamino)-4,5,6,7-tetrahydro-indazol-1-yl]-acetic acid] | 370
COc1ccc(-c2cccc(S(=O)(=O)NC3CCCc4c3cnn4CC(=O)O)c2)cc1 (stereo not drawn) [Example 10-5a, [4-(4′-Methoxy-biphenyl-3-sulfonylamino)-4,5,6,7-tetrahydro-indazol-1-yl]-acetic acid] | 369
O=C(O)Cn1ncc2c1CCC[C@H]2NS(=O)(=O)c1cc(F)c(Oc2ccc(F)cc2)cc1Cl [Example 5-6a, {(R)-4-[2-Chloro-5-fluoro-4-(4-fluoro-phenoxy)-benzenesulfonylamino]-4,5,6,7-tetrahydro-indazol-1-yl}-acetic acid] | 52.9
CN([C@@H]1CCCc2c1cnn2CC(=O)O)S(=O)(=O)c1cc(F)c(Oc2ccc(F)cc2)cc1Cl [Example 9-29a, ((R)-4-{[2-Chloro-5-fluoro-4-(4-fluoro-phenoxy)-benzenesulfonyl]-methyl-amino}-4,5,6,7-tetrahydro-indazol-1-yl)-acetic acid] | 151
CN([C@@H]1CCCc2c1cnn2CC(=O)O)S(=O)(=O)c1cnc(Oc2ccc(Cl)c(F)c2)c(Br)c1 [Example 6-10a, ((R)-4-{[5-Bromo-6-(4-chloro-3-fluoro-phenoxy)-pyridine-3-sulfonyl]-methyl-amino}-4,5,6,7-tetrahydro-indazol-1-yl)-acetic acid] | 18.7
O=C(O)Cn1ncc2c1CCC[C@H]2NS(=O)(=O)c1ccc(Oc2ccccc2Cl)c(Cl)c1 [Example 5-1a, {(R)-4-[3-Chloro-4-[2-chloro-phenoxy)-benzenesulfonylamino]-4,5,6,7-tetrahydro-indazol-1-yl}-acetic acid] | 14.6
COc1cc(Cl)ccc1Oc1ccc(S(=O)(=O)N(C)[C@@H]2CCCc3c2cnn3CC(=O)O)cc1Cl [Example 9-20a, ((R)-4-{[3-Chloro-4-(4-chloro-2-methoxy-phenoxy)-benzenesulfonyl]-methyl-amino}-4,5,6,7-tetrahydro-indazol-1-yl)-acetic acid] | 10.2
Cc1ccccc1Oc1ccc(S(=O)(=O)N(C)[C@@H]2CCCc3c2cnn3CC(=O)O)cc1Cl [Example 9-26a, {(R)-4-[(3-Chloro-4-o-tolyloxy-benzenesulfonyl)-methyl-amino]-4,5,6,7-tetrahydro-indazol-1-yl}-acetic acid] | 23.7
CN([C@@H]1CCCc2c1cnn2CC(=O)O)S(=O)(=O)c1ccc(-c2cccc(C(F)(F)F)c2)cc1 [Example 11-1a, {(R)-4-[Methyl-(3′-trifluoromethyl-biphenyl-4-sulfonyl)-amino]-4,5,6,7-tetrahydro-indazol-1-yl}-acetic acid] | 7.3
CN([C@@H]1CCCc2c1cnn2CC(=O)O)S(=O)(=O)c1cnc(Oc2ccc(Cl)cc2F)c(Br)c1 [Example 6-9a, ((R)-4-{[5-Bromo-6-(4-chloro-2-fluoro-phenoxy)-pyridine-3-sulfonyl]-methyl-amino}-4,5,6,7-tetrahydro-indazol-1-yl)-acetic acid] | 7.1
O=C(O)Cn1ncc2c1CCCC2NS(=O)(=O)c1ccc(-c2ccccc2)c(C(F)(F)F)c1 (stereo not drawn) [Example 10-9a, [4-(2-Trifluoromethyl-biphenyl-4-sulfonylamino)-4,5,6,7-tetrahydro-indazol-1-yl]-acetic acid] | 71.6
CCOc1cccc(-c2ccc(S(=O)(=O)NC3CCCc4c3cnn4CC(=O)O)cc2)c1 (stereo not drawn) [Example 10-20a, [4-(3′-Ethoxy-biphenyl-4-sulfonylamino)-4,5,6,7-tetrahydro-indazol-1-yl]-acetic acid] | 272
CC(C)Oc1cccc(-c2ccc(S(=O)(=O)NC3CCCc4c3cnn4CC(=O)O)cc2)c1 (stereo not drawn) [Example 10-21a, [4-(3′-Isopropoxy-biphenyl-4-sulfonylamino)-4,5,6,7-tetrahydro-indazol-1-yl]-acetic acid] | 120
C[Si](C)(C)c1cccc(-c2ccc(S(=O)(=O)N[C@@H]3CCCc4c3cnn4CC(=O)O)cc2)c1 [Example 10-26a, [(R)-4-(3′-Trimethylsilanyl-biphenyl-4-sulfonylamino)-4,5,6,7-tetrahydro-indazol-1-yl]-acetic acid] | 2.1
CN([C@@H]1CCCc2c1cnn2CC(=O)O)S(=O)(=O)c1ccc(Oc2ccc(Cl)cc2Cl)c(Cl)c1 [Example 9-6a, ((R)-4-{[3-Chloro-4-(2,4-dichloro-phenoxy)-benzenesulfonyl]-methyl-amino}-4,5,6,7-tetrahydro-indazol-1-yl)-acetic acid] | 21.7
CC(C)c1cccc(-c2ccc(S(=O)(=O)N[C@@H]3CCCc4c3cnn4CC(=O)O)cc2)c1 [Example 10-27a, [(R)-4-(3′-Isopropyl-biphenyl-4-sulfonylamino)-4,5,6,7-tetrahydro-indazol-1-yl]-acetic acid] | 5.1
O=C(O)Cn1ncc2c1CCCC2NS(=O)(=O)c1ccc(Oc2ccccc2)cc1 (stereo not drawn) [Example 1-3a, [4-(4-Phenoxy-benzenesulfonylamino)-4,5,6,7-tetrahydro-indazol-1-yl]-acetic acid] | 199
O=C(O)Cn1ncc2c1CCCC2NS(=O)(=O)c1ccc(-c2cccc([N+](=O)[O-])c2)cc1 (stereo not drawn) [Example 10-23a, [4-(3′-Nitro-biphenyl-4-sulfonylamino)-4,5,6,7-tetrahydro-indazol-1-yl]-acetic acid] | 238
CN([C@@H]1CCCc2c1cnn2CCC(=O)O)S(=O)(=O)c1cc(C(F)(F)F)cc(S(=O)(=O)c2ccc(F)cc2)c1 [Example 13-3a, 3-((R)-4-{[3-(4-Fluoro-benzenesulfonyl)-5-trifluoromethyl-benzenesulfonyl]-methyl-amino}-4,5,6,7-tetrahydro-indazol-1-yl)-propionic acid] | 4
CS(=O)(=O)c1ccc(Oc2ncc(S(=O)(=O)NC3CCCc4c3cnn4CC(=O)O)cc2Br)cc1 (stereo not drawn) [Example 2-5a, {4-[5-Bromo-6-(4-methanesulfonyl-phenoxy)-pyridine-3-sulfonylamino]-4,5,6,7-tetrahydro-indazol-1-yl}-acetic acid] | 101
CC(C)c1ccc(Oc2ncc(S(=O)(=O)N(C)[C@@H]3CCCc4c3cnn4CC(=O)O)cc2Br)cc1 [Example 6-11a, ((R)-4-{[5-Bromo-6-(4-isopropyl-phenoxy)-pyridine-3-sulfonyl]-methyl-amino}-4,5,6,7-tetrahydro-indazol-1-yl)-acetic acid] | 8.8
CC(C)c1cc(S(=O)(=O)N(C)[C@@H]2CCCc3c2cnn3CC(=O)O)cnc1Oc1ccc(Cl)cc1 [Example 7-1a, ((R)-4-{[6-(4-Chloro-phenoxy)-5-isopropyl-pyridine-3-sulfonyl]-methyl-amino}-4,5,6,7-tetrahydro-indazol-1-yl)-acetic acid] | 12.1
CN([C@@H]1CCCc2c1cnn2CC(=O)O)S(=O)(=O)c1cnc(Oc2cc(Cl)ccc2Cl)c(Br)c1 [Example 6-5a, ((R)-4-{[5-Bromo-6-(2,5-dichloro-phenoxy)-pyridine-3-sulfonyl]-methyl-amino}-4,5,6,7-tetrahydro-indazol-1-yl)-acetic acid] | 4.9
CN([C@@H]1CCCc2c1cnn2CC(=O)O)S(=O)(=O)c1cc(C(F)(F)F)cc(S(=O)(=O)c2ccc(Cl)cc2)c1 [Example 13-1a, ((R)-4-{[3-(4-Chloro-benzenesulfonyl)-5-trifluoromethyl-benzenesulfonyl]-methylamino}-4,5,6,7-tetrahydro-indazol-1-yl)-acetic acid] | 2.9
